From ChEMBL document CHEMBL5154933, “Development of Lipo-γ-AA Peptides as Potent Antifungal Agents” (J Med Chem, 2022)
Converted amounts (≈) assume the structure as drawn. The source made the active and inactive calls. No cut-off for these calls is given here.

Assays:
[1] = Selectivity ratio of HC50 for hemolytic activity in human RBC to MIC for antifungal activity against Candida albicans SC5314; type: toxicity; settings: red blood cells (erythrocytes)
Candida parapsilosis = test: Antifungal activity against Candida parapsilosis ATCC 22019 assessed as fungal growth inhibition by broth microdilution assay; type: functional; settings: Lodderomyces parapsilosis
Candida albicans [2] = test: Antifungal activity against Candida albicans CA17 assessed as fungal growth inhibition by broth microdilution assay; type: functional
Candida albicans [3] = test: Antifungal activity against Candida albicans 28A assessed as fungal growth inhibition by broth microdilution assay; type: functional
[4] = Selectivity ratio of HC50 for hemolytic activity in human RBC to MIC for antifungal activity against Cryptococcus neoformans 5-FC; type: toxicity; settings: red blood cells (erythrocytes)
[5] = Selectivity ratio of HC50 for hemolytic activity in human RBC to MIC for antifungal activity against Cryptococcus neoformans H99; type: toxicity; settings: red blood cells (erythrocytes)
[6] = Selectivity ratio of HC50 for hemolytic activity in human RBC to MIC for antifungal activity against Candida albicans CA17; type: toxicity; settings: red blood cells (erythrocytes)
Cryptococcus neoformans [7] = test: Antifungal activity against Cryptococcus neoformans 5-FC assessed as fungal growth inhibition by broth microdilution assay; type: functional
[8] = Selectivity ratio of HC50 for hemolytic activity in human RBC to MIC for antifungal activity against Candida albicans 28A; type: toxicity; settings: red blood cells (erythrocytes)
[9] = Hemolytic activity in human RBC incubated for 1 hr by microplate reader method; type: toxicity, cell-based, Erythrocyte; settings: red blood cells (erythrocytes)
Cryptococcus neoformans [10] = test: Antifungal activity against Cryptococcus neoformans H99 assessed as fungal growth inhibition by broth microdilution assay; type: functional
Candida albicans [11] = test: Antifungal activity against Candida albicans SC5314 assessed as fungal growth inhibition by broth microdilution assay; type: functional
Pichia kudriavzevii = test: Antifungal activity against Candida krusei ATCC6258 assessed as fungal growth inhibition by broth microdilution assay; type: functional
Candida albicans [12] = test: Antifungal activity against Candida albicans CARG5 assessed as fungal growth inhibition by broth microdilution assay; type: functional
[13] = Selectivity ratio of HC50 for hemolytic activity in human RBC to MIC for antifungal activity against Cryptococcus gattii R265; type: toxicity; settings: red blood cells (erythrocytes)
[14] = Selectivity ratio of HC50 for hemolytic activity in human RBC to MIC for antifungal activity against Candida albicans CARG5; type: toxicity; settings: red blood cells (erythrocytes)
[15] = Selectivity ratio of HC50 for hemolytic activity in human RBC to MIC for antifungal activity against Candida krusei ATCC6258; type: toxicity; settings: red blood cells (erythrocytes)
[16] = Selectivity ratio of HC50 for hemolytic activity in human RBC to MIC for antifungal activity against Candida parapsilosis ATCC 22019; type: toxicity; settings: red blood cells (erythrocytes)
[17] = system: Cryptococcus deuterogattii; test: Antifungal activity against Cryptococcus gattii VGII R265 assessed as fungal growth inhibition by broth microdilution assay; type: functional, Cryptococcus gattii species complex
Aspergillus fumigatus [18] = test: Antifungal activity against Aspergillus fumigatus AF293 assessed as fungal growth inhibition by broth microdilution assay; type: functional
Mucor racemosus [19] = test: Antifungal activity against Mucor racemosus MZ140 assessed as fungal growth inhibition by broth microdilution assay; type: functional
Mucor racemosus [20] = test: Antifungal activity against Mucor racemosus R715 assessed as fungal growth inhibition by broth microdilution assay; type: functional
Aspergillus fumigatus [21] = test: Antifungal activity against Aspergillus fumigatus shjt40 assessed as fungal growth inhibition by broth microdilution assay; type: functional
Cell membrane = test: Induction of membrane permeabilization in Candida albicans SC5314 assessed as distruption of fungal cell membrane by measuring PI positive cells at 8 times MIC measured after 1 hrs by propidium iodide and DAPI staining based fluorescence microscopic analysis; type: subcellular
[22] = Selectivity ratio of HC50 for hemolytic activity in human RBC to MIC for antifungal activity against Aspergillus fumigatus AF293; type: toxicity; settings: red blood cells (erythrocytes)
[23] = Selectivity ratio of HC50 for hemolytic activity in human RBC to MIC for antifungal activity against Mucor racemosus MZ140; type: toxicity; settings: red blood cells (erythrocytes)
[24] = Selectivity ratio of HC50 for hemolytic activity in human RBC to MIC for antifungal activity against Mucor racemosus R715; type: toxicity; settings: red blood cells (erythrocytes)
[25] = Selectivity ratio of HC50 for hemolytic activity in human RBC to MIC for antifungal activity against Aspergillus fumigatus shjt40; type: toxicity; settings: red blood cells (erythrocytes)

Row | MIC50 (Candida parapsilosis) [µg/mL] | MIC50 (Candida albicans [2]) [µg/mL] | MIC50 (Candida albicans [3]) [µg/mL] | MIC50 (Cryptococcus neoformans [7]) [µg/mL] | MIC50 (Cryptococcus neoformans [10]) [µg/mL] | MIC50 (Candida albicans [11]) [µg/mL] | MIC50 (Pichia kudriavzevii) [µg/mL] | MIC50 (Candida albicans [12]) [µg/mL] | MIC50 [17] [µg/mL] | MIC50 (Aspergillus fumigatus [18]) [µg/mL] | Structure (SMILES) | selectivity ratio [1] | selectivity ratio [4] | selectivity ratio [5] | selectivity ratio [6] | selectivity ratio [8] | HC50 at 1 h [9] [µg/mL] | selectivity ratio [13] | selectivity ratio [14] | selectivity ratio [15] | selectivity ratio [16] | further results
1 | 2 (≈ 3.1 µM) | 4 (≈ 6.2 µM) | 4 (≈ 6.2 µM) | 4 (≈ 6.2 µM) | 4 (≈ 6.2 µM) | 4 (≈ 6.2 µM) | 2 (≈ 3.1 µM) | 4 (≈ 6.2 µM) | 4 (≈ 6.2 µM) |  | CCCCCCCCCCCCCCCC(=O)N[C@@H](CCCCN)C(=O)N[C@@H](Cc1ccccc1)CN(CC(N)=O)C(=O)CCN | ≤ 125 | ≤ 125 | ≤ 125 | ≤ 125 | ≤ 125 | > 250 | ≤ 125 | ≤ 125 | ≤ 125 | ≤ 125 | 
2 |  |  |  |  |  |  |  |  |  | 1 (≈ 1.42 µM) | CCC(C)n1ncn(-c2ccc(N3CCN(c4ccc(OCC5COC(Cn6cncn6)(c6ccc(Cl)cc6Cl)O5)cc4)CC3)cc2)c1=O (stereo unspecified) [ITRACONAZOLE] |  |  |  |  |  |  |  |  |  |  | MIC50 (Mucor racemosus [19]): 1 µg/mL (≈ 1.42 µM); MIC50 (Mucor racemosus [20]): 1 µg/mL (≈ 1.42 µM); MIC50 (Aspergillus fumigatus [21]): > 32 µg/mL
3 |  |  |  |  |  |  |  |  |  |  | C[C@@H]1[C@H](O)[C@@H](C)/C=C/C=C/C=C/C=C/C=C/C=C/C=C/[C@H](O[C@@H]2O[C@H](C)[C@@H](O)[C@H](N)[C@@H]2O)C[C@@H]2O[C@](O)(C[C@@H](O)C[C@@H](O)[C@H](O)CC[C@@H](O)C[C@@H](O)CC(=O)O[C@H]1C)C[C@H](O)[C@H]2C(=O)O |  |  |  |  |  |  |  |  |  |  | Activity (Cell membrane): Active
4 | 2 (≈ 2.97 µM) | 4 (≈ 5.94 µM) | 2 (≈ 2.97 µM) | 2 (≈ 2.97 µM) | 2 (≈ 2.97 µM) | 2 (≈ 2.97 µM) | 4 (≈ 5.94 µM) | 2 (≈ 2.97 µM) | 2 (≈ 2.97 µM) | 8 (≈ 11.9 µM) | CCCCCCCCCCCCCCCCCC(=O)N[C@@H](CCCCN)C(=O)N[C@@H](Cc1ccccc1)CN(CC(N)=O)C(=O)CCN | ≤ 125 | ≤ 125 | ≤ 125 | ≤ 125 | ≤ 125 | > 250 | ≤ 125 | ≤ 125 | ≤ 125 | ≤ 125 | selectivity ratio [22]: ≤ 125; selectivity ratio [23]: ≤ 125; selectivity ratio [24]: ≤ 125; MIC50 (Mucor racemosus [19]): 16 µg/mL (≈ 23.8 µM); selectivity ratio [25]: ≤ 125; MIC50 (Mucor racemosus [20]): 16 µg/mL (≈ 23.8 µM); MIC50 (Aspergillus fumigatus [21]): 8 µg/mL (≈ 11.9 µM)
